Source: patent US20190216829A1, “Anticancer Compositions” (ARAGON PHARMACEUTICALS, INC., priority 2016, published 2019)
≈ marks a conversion by molar mass, not a printed value.

Assay: Solubility of ARN-509 forms in water
Format: physicochemical
Procedure: Solubility of Form A: 0.01 mg/ml in water.
Solubility of Form B: 0.004 mg/ml in water.

| Solubility [µg/mL] | SMILES |
| --- | --- |
| 4 (≈ 8.38 µM) | CNC(=O)c1ccc(N2C(=S)N(c3cnc(C#N)c(C(F)(F)F)c3)C(=O)C23CCC3)cc1F [Form B, 4-[7-(6-cyano-5-trifluoromethylpyridin-3-yl)-8-oxo-6-thioxo-5,7-diazaspiro[3.4]oct-5-yl]-2-fluoro-N-methylbenzamide] |
| 10 (≈ 20.9 µM) | CNC(=O)c1ccc(N2C(=S)N(c3cnc(C#N)c(C(F)(F)F)c3)C(=O)C23CCC3)cc1F [Form A, 4-[7-(6-cyano-5-trifluoromethylpyridin-3-yl)-8-oxo-6-thioxo-5,7-diazaspiro[3.4]oct-5-yl]-2-fluoro-N-methylbenzamide] |
